# Biological target: BRD4 (Homo sapiens, UniProt O60885)
# Test: Differential Scanning Fluorimetry (DSF), stability of BRD4 upon ligand binding
# Settings: for ΔTm at 4 µM: 100 μM protein, 4 μM compound and 2% DMSO; for IC50: estimated
# Method: DSF=Differential Scanning Fluorimetry; provides a measure of the increased stability of BRD4 upon ligand binding The DSF experiment was run at 100 μM protein, 4 μM compound and 2% DMSO.
ΔTm at 4 µM [°C],IC50 [µM],Compound
6.4 ± 0.12,0.15,CN1CCN(c2ccc(Nc3nc4c(c(Nc5cccc(NS(=O)(=O)C(C)(C)C)c5)n3)CCC4)cc2)CC1
1.3 ± 0.12,7.9,CN1CCN(c2ccc(Nc3nc4c(c(Nc5cccc(NS(=O)(=O)C6CC6)c5)n3)COC4)cc2)CC1
-0.071 ± 0.042,22.9,CC(C)(C)NS(=O)(=O)c1cccc(Nc2nc(Nc3ccc(N4CCOCC4)cc3)ncc2Cl)c1
3.9 ± 0.24,1,CC(C)S(=O)(=O)Nc1cccc(Nc2nc(Nc3ccc(N4CCN(C)CC4)cc3)nc3c2COC3)c1
5.4 ± 0.15,0.34,CCOc1cccc(Nc2nc(Nc3ccc(N4CCN(C)CC4)cc3)ncc2C)c1
3.17 ± 0.142,3.13,Cc1cnc(Nc2ccc(N3CCN(C)CC3)cc2)nc1Nc1cccc([N+](=O)[O-])c1
3.4 ± 0.12,1.6,CCOC(=O)c1cnc(Nc2ccc(N3CCN(C)CC3)cc2)nc1Nc1cccc(NS(=O)(=O)C(C)(C)C)c1
0.12 ± 0.053,19.8,CN1CCN(c2ccc(Nc3ncc(Cl)c(Nc4cccc(C(C)(C)C)c4)n3)cc2)CC1
12.1 ± 0.105,0.0098,Cc1cnc(Nc2ccc(N3CCN(C)CC3)c(F)c2)nc1Nc1ccc2c(c1)N(S(=O)(=O)C(C)(C)C)CC2
3.8 ± 0.056,1.2,CC(C)NS(=O)(=O)c1cccc(Nc2nc(Nc3ccc(N4CCN(C)CC4)cc3)nc3c2CCC3)c1
7.2 ± 0.17,0.085,CN1CCN(c2ccc(Nc3ncc(F)c(Nc4ccc(Cl)c(NS(=O)(=O)C(C)(C)C)c4)n3)cc2)CC1
3.5 ± 0.19,1.5,Cc1cnc(Nc2ccc(N3CCN(C)CC3)cc2)nc1Nc1cccc(NC(=O)C(C)(C)C)c1
0.073 ± 0.083,20.5,CN1CCN(c2ccc(Nc3ncc(Cl)c(Nc4ccc5c(c4)OCO5)n3)cc2)CC1
9.97 ± 0.08,0.039,Cc1cnc(Nc2ccc(N3CCN(C)CC3)cc2)nc1Nc1ccc2c(c1)N(S(=O)(=O)C(C)(C)C)CC2
7.28 ± 0.091,0.221,Cc1cnc(Nc2ccc(N3CCN(C)CC3)cc2)nc1Nc1ccc(Cl)c(NS(=O)(=O)CC(C)C)c1
2.3 ± 0.073,3.8,CN1CCN(c2ccc(Nc3ncc(C(N)=O)c(Nc4cccc(NS(=O)(=O)C5CC5)c4)n3)cc2)CC1
4.3 ± 0.14,0.77,CC(C)S(=O)(=O)Nc1cccc(Nc2nc(Nc3ccc(N4CCN(C)CC4)cc3)nc3c2CCC3)c1
5.7 ± 0.054,0.27,CN1CCN(c2ccc(Nc3ncc(Cl)c(Nc4cccc(S(=O)(=O)NC(C)(C)C)c4)n3)cc2)CC1
2.5 ± 0.069,3.2,COc1cc(Nc2ccnc(Nc3ccc(N4CCN(C)CC4)cc3)n2)ccc1Cl
8.89 ± 0.044,0.0748,Cc1cnc(Nc2ccc(N3CCN(C)CC3)c(F)c2)nc1Nc1ccc(Cl)c(NS(=O)(=O)CC(C)C)c1
3.1 ± 0.08,2,CN1CCN(c2ccc(Nc3ncc(CO)c(Nc4cccc(NS(=O)(=O)C(C)(C)C)c4)n3)cc2)CC1
7.5 ± 0.23,0.068,Cc1cnc(Nc2ccc(N3CCN(C)CC3)cc2)nc1Nc1cccc(NS(=O)(=O)C2(C)CC2)c1
3.4 ± 0.27,1.6,CN1CCN(c2ccc(Nc3ncc(F)c(Nc4ccc(C(=O)NC5CC5)cc4)n3)cc2)CC1
1.68 ± 0.078,5.96,COc1cccc(Nc2nc(Nc3ccc(N4CCN(C)CC4)cc3)ncc2Cl)c1

ΔTm at 4 µM [°C],IC50 [µM],Compound
5.9 ± 0.063,2.3,COc1cc(Nc2nc(Nc3ccc(C(=O)NC4CCN(C)CC4)cc3)ncc2C)cc(OC)c1Cl
5.8 ± 0.11,0.26,CN1CCN(c2ccc(Nc3nc(Nc4cccc(NS(=O)(=O)C5CC5)c4)c4ccccc4n3)cc2)CC1
3.1 ± 0.075,2,CCCc1cnc(Nc2ccc(N3CCN(C)CC3)cc2)nc1Nc1ccc(Cl)c(OC)c1
6.7 ± 0.15,0.13,CCCS(=O)(=O)Nc1cc(Nc2nc(Nc3ccc(N4CCN(C)CC4)cc3)ncc2C)ccc1Cl
2.7 ± 0.0089,2.7,CN1CCN(c2ccc(Nc3ncc(C(N)=O)c(Nc4cccc(S(=O)(=O)NC(C)(C)C)c4)n3)cc2)CC1
2.9 ± 0.12,2.33,Cc1cnc(Nc2ccc(N3CCN(C)CC3)cc2)nc1Nc1cccc(C(C)(C)C)c1
6 ± 0.13,0.22,CN1CCN(c2ccc(Nc3nc4c(c(Nc5cccc(NS(=O)(=O)C(C)(C)C)c5)n3)COC4)cc2)CC1
7.6 ± 0.047,0.062,Cc1cnc(Nc2ccc(C(=O)NC3CCN(C)CC3)cc2)nc1Nc1cccc(NS(=O)(=O)C(C)(C)C)c1
4.6 ± 0.13,0.63,Cc1cnc(Nc2ccc(N3CCN(C)CC3)cc2)nc1Nc1cccc(NS(C)(=O)=O)c1
4.6 ± 0.05,0.62,CN1CCN(c2ccc(Nc3nc4c(c(Nc5ccc(Cl)c(NS(=O)(=O)C6CC6)c5)n3)CCC4)cc2)CC1
8.72 ± 0.141,0.0873,Cc1cnc(Nc2ccc(N3CCN(C)CC3)cc2)nc1Nc1ccc2c(c1)N(S(=O)(=O)C(C)(C)C)CCC2
9.54 ± 0.163,0.0514,Cc1cnc(Nc2ccc(N3CCN(C)CC3)c(Cl)c2)nc1Nc1ccc(Cl)c(NS(=O)(=O)C(C)(C)C)c1
8.12 ± 0.044,0.129,Cc1cnc(Nc2ccc(N3CCN(C)CC3)c(C(F)(F)F)c2)nc1Nc1cccc(NS(=O)(=O)C(C)(C)C)c1
0.56 ± 0.37,14.1,COc1cc(Nc2ncc(C(F)(F)F)c(Nc3ccc(N4CCN(C)CC4)cc3)n2)ccc1Cl
2.6 ± 0.15,2.94,CN1CCN(c2ccc(Nc3ncc(Cl)c(Nc4ccc5c(c4)OCCO5)n3)cc2)CC1
7.93 ± 0.183,0.145,CCS(=O)(=O)Nc1cc(Nc2nc(Nc3ccc(N4CCN(C)CC4)cc3)ncc2C)ccc1Cl
3.3 ± 0.36,1.8,Cc1cnc(Nc2ccc(N3CCN(C)CC3)cc2)nc1Nc1cccc(NS(=O)(=O)N(C)C)c1
9.2 ± 0.12,0.018,Cc1ccc(Nc2nc(Nc3ccc(N4CCN(C)CC4)cc3)ncc2C)cc1NS(=O)(=O)C(C)(C)C
4.8 ± 0.12,0.54,CC(C)Oc1cccc(Nc2nc(Nc3ccc(N4CCN(C)CC4)cc3)ncc2Cl)c1
7 ± 0.14,0.1,Cc1cnc(Nc2ccc(N3CCN(C)CC3)cc2)nc1Nc1ccc(Cl)c(NS(=O)(=O)C2CC2)c1
5.2 ± 0.15,0.4,CN1CCN(c2ccc(Nc3ncc(F)c(Nc4cccc(NS(=O)(=O)C(C)(C)C)c4)n3)cc2)CC1
0.073 ± 0.13,20.5,COc1cc(Nc2nc(Nc3ccc(N4CCN(C)CC4)cc3)ncc2Cl)c(OC)cc1Cl
0.57 ± 0.25,14,COc1cc(Nc2nc(Nc3ccc(N4CCN(C)CC4)cc3)ncc2C)c(OC)cc1Cl

Compound,ΔTm at 4 µM [°C],IC50 [µM]
Cc1cnc(Nc2ccc(CC(=O)N3CCN(C)CC3)cc2)nc1Nc1ccc(Cl)cc1,4.1 ± 0.21,0.93
Cc1cnc(Nc2ccc(CC(=O)N3CCN(C)CC3)cc2)nc1Nc1ccc(C(=O)NC2CC2)cc1,6.8 ± 0.15,0.11
Cc1cnc(Nc2ccc(CC(=O)N3CCN(C)CC3)cc2)nc1Nc1ccc(Cl)c(Cl)c1,4.7 ± 0.14,0.58
CN1CCN(C(=O)Cc2ccc(Nc3ncc(F)c(Nc4ccc(C(=O)NC5CC5)cc4)n3)cc2)CC1,4.2 ± 0.2,0.85
